Laboratory results from patent publication US9492471B2, “Methods of treating a disease or disorder associated with Bruton'S Tyrosine Kinase” (Celgene Avilomics Research, Inc., priority 2013, dated 2016).
Like-named read-outs stand apart in the source and are kept apart here.

Tests used:
Assay in all cases: HotSpot kinase profiling
Assay type in all cases: biochemical
CLK1 = target: T1, CLK1 (Homo sapiens, UniProt P49759)
T1 construct: purchased Reaction Biology Corp
Procedure, shortened: (§1)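 Radio-isotope P81 filtration format. Substrate + required cofactors in reaction buffer, kinase added, 2 h RT. Stop, wash with 0.1% phosphoric acid, detect. % inhibition vs DMSO; mean of duplicates where repeated.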

Haspin = target: T2, Haspin (Homo sapiens, UniProt Q8TF76)
T2 construct: purchased Reaction Biology Corp
T2 sequence (Q8TF76 1-798): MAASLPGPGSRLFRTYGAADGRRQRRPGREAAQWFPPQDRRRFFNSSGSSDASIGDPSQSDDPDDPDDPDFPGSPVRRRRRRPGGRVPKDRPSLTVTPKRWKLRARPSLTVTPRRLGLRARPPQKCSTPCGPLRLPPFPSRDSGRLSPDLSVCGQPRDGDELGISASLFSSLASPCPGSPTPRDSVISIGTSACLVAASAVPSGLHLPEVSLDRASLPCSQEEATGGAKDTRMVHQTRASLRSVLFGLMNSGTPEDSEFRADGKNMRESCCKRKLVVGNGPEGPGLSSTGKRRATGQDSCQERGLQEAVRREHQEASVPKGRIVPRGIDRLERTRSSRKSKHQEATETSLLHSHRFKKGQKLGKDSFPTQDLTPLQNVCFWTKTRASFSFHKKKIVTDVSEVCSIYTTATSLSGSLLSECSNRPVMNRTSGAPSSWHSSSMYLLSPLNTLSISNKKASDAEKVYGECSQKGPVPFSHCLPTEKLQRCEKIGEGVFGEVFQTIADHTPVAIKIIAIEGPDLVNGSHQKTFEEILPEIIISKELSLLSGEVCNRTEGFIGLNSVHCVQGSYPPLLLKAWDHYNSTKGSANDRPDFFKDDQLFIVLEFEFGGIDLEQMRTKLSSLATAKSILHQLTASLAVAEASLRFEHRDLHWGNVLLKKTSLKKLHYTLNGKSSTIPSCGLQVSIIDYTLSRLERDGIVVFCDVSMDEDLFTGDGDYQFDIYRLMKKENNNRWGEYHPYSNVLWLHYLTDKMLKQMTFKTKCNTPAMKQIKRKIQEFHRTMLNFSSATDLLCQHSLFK
Procedure, shortened: as §1

DCAMKL2 = target: T3, DCAMKL2 (Homo sapiens, UniProt Q8N568)
T3 construct: purchased Reaction Biology Corp
T3 sequence (Q8N568 1-766): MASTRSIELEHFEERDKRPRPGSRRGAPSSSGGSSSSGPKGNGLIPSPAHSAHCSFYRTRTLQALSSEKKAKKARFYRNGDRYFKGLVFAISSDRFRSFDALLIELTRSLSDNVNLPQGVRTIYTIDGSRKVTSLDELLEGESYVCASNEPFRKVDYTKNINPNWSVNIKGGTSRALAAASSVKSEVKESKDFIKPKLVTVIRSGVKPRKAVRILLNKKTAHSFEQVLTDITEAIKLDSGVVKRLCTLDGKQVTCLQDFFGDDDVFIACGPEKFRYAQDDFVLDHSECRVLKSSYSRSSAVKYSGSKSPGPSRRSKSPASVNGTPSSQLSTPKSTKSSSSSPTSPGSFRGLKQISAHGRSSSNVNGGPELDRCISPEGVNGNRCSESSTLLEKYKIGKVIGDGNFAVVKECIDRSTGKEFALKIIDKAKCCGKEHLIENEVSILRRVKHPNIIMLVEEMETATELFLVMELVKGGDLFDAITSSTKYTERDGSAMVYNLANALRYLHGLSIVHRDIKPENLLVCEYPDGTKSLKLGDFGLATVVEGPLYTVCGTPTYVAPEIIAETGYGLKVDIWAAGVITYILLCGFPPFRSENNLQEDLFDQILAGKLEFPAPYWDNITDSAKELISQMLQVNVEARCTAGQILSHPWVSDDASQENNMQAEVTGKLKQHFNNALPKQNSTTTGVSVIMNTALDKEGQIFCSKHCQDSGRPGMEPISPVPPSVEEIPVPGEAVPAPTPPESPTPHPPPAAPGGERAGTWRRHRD
Procedure, shortened: as §1

[1] = read-out: % Enzyme Activity (relative to DMSO controls) Run 1
[2] = read-out: % Enzyme Activity (relative to DMSO controls) Run 2

T1 sequence (P49759 whole entry): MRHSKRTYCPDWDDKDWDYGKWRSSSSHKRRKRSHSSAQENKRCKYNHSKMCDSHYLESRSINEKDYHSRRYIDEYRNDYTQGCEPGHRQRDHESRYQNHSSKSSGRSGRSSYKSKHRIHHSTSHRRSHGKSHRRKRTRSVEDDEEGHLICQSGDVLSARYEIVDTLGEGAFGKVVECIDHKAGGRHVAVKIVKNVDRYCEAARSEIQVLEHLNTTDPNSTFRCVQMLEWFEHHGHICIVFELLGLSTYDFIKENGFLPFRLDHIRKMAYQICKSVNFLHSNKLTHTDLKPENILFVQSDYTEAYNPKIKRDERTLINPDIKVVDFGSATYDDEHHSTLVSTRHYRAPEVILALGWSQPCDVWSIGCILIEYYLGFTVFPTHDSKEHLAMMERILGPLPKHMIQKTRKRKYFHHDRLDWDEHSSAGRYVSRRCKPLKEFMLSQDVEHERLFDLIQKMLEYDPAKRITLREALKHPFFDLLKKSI

C=CC(=O)Nc1cccc(Nc2nc(Nc3ccc(OCCOC)c(F)c3)ncc2F)c1 [Compound 2]
inhibition at 3 µM (CLK1): 24.1%
remaining activity at 3 µM (CLK1; [1]): 74.4%
remaining activity at 3 µM (CLK1; [2]): 77.4%
inhibition at 3 µM (Haspin): 9.77%
remaining activity at 3 µM (Haspin; [1]): 90.6%
remaining activity at 3 µM (Haspin; [2]): 89.9%
inhibition at 3 µM (DCAMKL2): 0.18%
remaining activity at 3 µM (DCAMKL2; [1]): 100%
remaining activity at 3 µM (DCAMKL2; [2]): 99.5%
